The text below walks through data of PMC6777076 (ACS Omega, 2019).

The target in this assay is T1, uridine nucleoside ribohydrolase (UNH) (Trichomonas vaginalis, UniProt A2FTT0).
T1 sequence (A2FTT0 1-347): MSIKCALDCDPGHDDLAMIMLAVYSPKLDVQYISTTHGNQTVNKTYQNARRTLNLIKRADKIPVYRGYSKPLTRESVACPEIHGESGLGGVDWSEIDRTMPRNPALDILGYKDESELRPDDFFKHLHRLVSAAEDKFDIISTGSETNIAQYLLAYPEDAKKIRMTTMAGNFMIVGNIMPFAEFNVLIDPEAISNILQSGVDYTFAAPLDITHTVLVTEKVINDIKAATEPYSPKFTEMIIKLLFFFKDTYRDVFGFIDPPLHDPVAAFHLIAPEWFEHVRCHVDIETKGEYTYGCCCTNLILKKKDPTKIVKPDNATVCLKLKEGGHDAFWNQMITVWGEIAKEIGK
The assay is described as follows: 19F NMR-based activity assay. In kind it is biochemical. The note with it: from UNH potency and heavy atom count.

Take `CSc1nc2ccccc2[nH]1` [2-methylthiobenzimidazole]: the “LE (ligand efficiency)” value is 0.53.
The same measure for `COc1ccc2[nH]c([S+]([O-])Cc3ncc(C)c(OC)c3C)nc2c1` (centres unmarked) [omeprazole]: 0.36.
